Measured values reported in US6787522B2, “Antibacterial agents” (British Biotech Pharmaceuticals, priority 1998, dated 2004).
In brackets after ≈: the same amount, converted by molar mass. Read-outs that look alike come from different tables or passages of the source.

Columns and labels:
Type in all cases: cell-based
[1] = tested on: Klebsiella pneumoniae (American Type Culture Collection number 13883); assay: MIC, two fold serial dilution in 2xYT broth; conditions: 37° C., 18 hours
[2] = tested on: Enterobacter cloacae (American Type Culture Collection number 13047); assay: MIC, two fold serial dilution in 2xYT broth; conditions: 37° C., 18 hours
[3] = tested on: Staphylococcus capitis (American Type Culture Collection number 35661); assay: MIC, two fold serial dilution in 2xYT broth; conditions: 37° C., 18 hours
E. coli strain DH5α = assay: MIC, two fold serial dilution in 2xYT broth; conditions: Escherichia coli, 37° C., 18 hours
[4] = tested on: Pseudomonas aeruginosa (American Type Culture Collection number 9027); assay: MIC, Nutrient Broth; conditions: P. aeruginosa, 37° C., 20 hours
[5] = tested on: Mycobacterium ranae (American Type Culture Collection number 110); assay: MIC, Brain Heart Infusion broth; conditions: M. ranae, 37° C., 48 hours
[6] = tested on: Klebsiella pneumoniae (American Type Culture Collection number 10031); assay: MIC, Nutrient Broth; conditions: K. pneumoniae, 37° C., 20 hours
[7] = tested on: Enterococcus faecalis ATCC 29212; assay: MIC, Microdilution Broth Method (NCCLS)
[8] = tested on: Escherichia coli ATCC 12014; assay: MIC, Microdilution Broth Method (NCCLS); conditions: ATCC12014
[9] = tested on: Pseudomonas aeruginosa ATCC 27853; assay: MIC, Microdilution Broth Method (NCCLS); conditions: ATCC27853
[10] = tested on: Escherichia coli ATCC 25922; assay: MIC, Microdilution Broth Method (NCCLS); conditions: ATCC25922
[11] = tested on: Enterococcus faecalis (Vancomycin resistant strain); assay: MIC, Microdilution Broth Method (NCCLS)
[12] = tested on: Klebsiella pneumoniae ATCC 13883; assay: MIC, Microdilution Broth Method (NCCLS); conditions: ATCC13883
[13] = tested on: Staphylococcus epidermidis ATCC 27626; assay: MIC, Microdilution Broth Method (NCCLS); conditions: ATCC27626
[14] = tested on: Staphylococcus epidermidis ATCC 1228; assay: MIC, Microdilution Broth Method (NCCLS); conditions: ATCC1228
[15] = tested on: Staphylococcus aureus ATCC 6538 MSSA; assay: MIC, Microdilution Broth Method (NCCLS)
[16] = tested on: Enterobacter cloacae ATCC 13047; assay: MIC, Microdilution Broth Method (NCCLS); conditions: ATCC13047
[17] = tested on: Staphylococcus aureus ATCC 25923 MSSA; assay: MIC, Microdilution Broth Method (NCCLS)
[18] = tested on: Staphylococcus aureus ATCC 29213 MSSA; assay: MIC, Microdilution Broth Method (NCCLS)
[19] = tested on: Micrococcus luteus ATCC 9341; assay: MIC, Microdilution Broth Method (NCCLS); conditions: ATCC9341
[20] = tested on: Helicobacter pylori (American Type Culture Collection number 43504); assay: MIC, Columbia agar base with 7% sheep blood; conditions: H. pylori, 35° C., 72 hours
[21] = tested on: clinical isolates of aminoglycoside and erythromycin resistant Streptococcus pneumoniae; assay: MIC, tryptic soy broth with 7% calf serum
[22] = tested on: methicillin-resistant (MR) Staphylococcus aureus (American Type Culture Collection number 33591); assay: MIC, Nutrient Broth; conditions: S. aureus (MR), 37° C., 20 hours
[23] = tested on: Morganella morganii ATCC 36030; assay: MIC, Microdilution Broth Method (NCCLS); conditions: ATCC36030
[24] = Pseudomonas aeruginosa, read-out: MIC
[25] = ATCC29212, Enterococcus faecalis ATCC 29212, Gram-positive table, read-out: MIC
[26] = Enterococcus faecalis (Vancomycin resistant strain), Gram-positive table, read-out: MIC
[27] = Staphylococcus epidermidis ATCC 27626, read-out: MIC
[28] = Staphylococcus epidermidis ATCC 1228, read-out: MIC
[29] = Staphylococcus aureus ATCC 6538 MSSA, read-out: MIC
[30] = Staphylococcus aureus ATCC 25923 MSSA, read-out: MIC
[31] = Staphylococcus aureus ATCC 29213 MSSA, read-out: MIC
[32] = Micrococcus luteus ATCC 9341, read-out: MIC
[33] = Helicobacter pylori, read-out: MIC
[34] = Streptococcus pneumoniae, S. pneumoniae, tryptic soy broth, 7% calf serum, 37° C., 48 hours, read-out: MIC
[35] = Enterococcus faecalis ATCC 29212, table of multi-resistant clinical isolate
[36] = Enterococcus faecalis Vancomycin resistant strain (multi-resistant clinical isolate)
[37] = ATCC29212, Enterococcus faecalis ATCC 29212, table of multi-resistant clinical isolate, read-out: MIC
[38] = Enterococcus faecalis Vancomycin resistant strain (multi-resistant clinical isolate), read-out: MIC
[39] = Enterococcus faecalis, ATCC29212

Molecule `NC[C@H]1O[C@H](O[C@H]2[C@H](O)[C@@H](O[C@H]3O[C@H](CO)[C@@H](O)[C@H](N)[C@H]3O)[C@H](N)C[C@@H]2N)[C@H](O)[C@@H](O)[C@@H]1O` [kanamycin] has an MIC [1] of 25 µM (≈ 12.1 µg/mL), an MIC [2] of 50 µM (≈ 24.2 µg/mL) and an MIC [3] of less than 1.56 µM. The MIC (E. coli strain DH5α) was 12.5 µM (≈ 6.06 µg/mL).
In the case of `CCCCC(CN(O)C=O)C(=O)N[C@H](C(=O)NC)C(C)(C)C` (single isomer, unassigned) [Compound 1, 2R (or S)-[(Formyl-hydroxy-amino)-methyl]-hexanoic acid-(2,2-dimethyl-1S-methyl-carbamoyl-propyl)-amide], the MIC [4, 24] is reported as 12.5 µg/mL (≈ 39.6 µM), the MIC [5] is reported as 0.78 µg/mL (≈ 2.47 µM) and the MIC ([6]; Klebsiella pneumoniae, read-out: MIC) is reported as 0.2 µg/mL (≈ 0.634 µM). The MIC [7, 25] was 32 µg/mL (≈ 101 µM), the MIC [8] was 4 µg/mL (≈ 12.7 µM) and the MIC [9] was greater than 128 µg/mL. The MIC [10] was 4 µg/mL (≈ 12.7 µM), the MIC [11, 26] was 128 µg/mL (≈ 406 µM) and the MIC [12] was 16 µg/mL (≈ 50.7 µM). For the same molecule, the MIC [13, 27] was 8 µg/mL (≈ 25.4 µM), the MIC [14, 28] was 8 µg/mL (≈ 25.4 µM) and the MIC [15, 29] was 8 µg/mL (≈ 25.4 µM). The MIC [16] was 32 µg/mL (≈ 101 µM), the MIC [17, 30] was 16 µg/mL (≈ 50.7 µM) and the MIC [18, 31] was 32 µg/mL (≈ 101 µM). For the same molecule, the MIC [19, 32] was 0.5 µg/mL (≈ 1.59 µM), the MIC [20, 33] was 0.1 µg/mL (≈ 0.317 µM) and the MIC [21, 34] was 50 µg/mL (≈ 159 µM). The MIC [1] was 25 µM (≈ 7.89 µg/mL), the MIC [2] was 50 µM (≈ 15.8 µg/mL) and the MIC [3] was 100 µM (≈ 31.5 µg/mL). For the same molecule, the MIC (E. coli strain DH5α) was 12.5 µM (≈ 3.94 µg/mL), the MIC ([22]; Staphylococcus aureus, read-out: MIC) was 3.13 µg/mL (≈ 9.92 µM) and the MIC [23] was 128 µg/mL (≈ 406 µM).
With `CCCCC(CN(O)C=O)C(=O)N[C@H](C(=O)N(C)C)C(C)(C)C` (stereo partly drawn) [Compound 3, 2R (or S)-[(Formyl-hydroxy-amino)-methyl]-hexanoic acid-(1S-dimethylcarbamoyl-2,2-dimethyl-propyl)-amide] the MIC [7, 25] was 32 µg/mL (≈ 97.1 µM), the MIC [7, 35] was 32 µg/mL (≈ 97.1 µM) and the MIC [8] was 4 µg/mL (≈ 12.1 µM). It also gave an MIC [9] of 128 µg/mL (≈ 389 µM), an MIC [10] of 4 µg/mL (≈ 12.1 µM) and an MIC [11, 26] of 8 µg/mL (≈ 24.3 µM). For the same molecule, the MIC [11, 36] was 8 µg/mL (≈ 24.3 µM), the MIC [12] was 16 µg/mL (≈ 48.6 µM) and the MIC [13, 27] was 2 µg/mL (≈ 6.07 µM). For the same molecule, the MIC [14, 28] was 4 µg/mL (≈ 12.1 µM), the MIC [15, 29] was 4 µg/mL (≈ 12.1 µM) and the MIC [16] was 32 µg/mL (≈ 97.1 µM). It also gave an MIC [17, 30] of 16 µg/mL (≈ 48.6 µM), an MIC [18, 31] of 8 µg/mL (≈ 24.3 µM) and an MIC [19, 32] of 0.5 µg/mL (≈ 1.52 µM). It also gave an MIC [23] greater than 128 µg/mL.
`CC1(C)S[C@@H]2[C@H](NC(=O)C(C(=O)O)c3ccccc3)C(=O)N2[C@H]1C(=O)O` (stereo partly drawn) [carbenicillin] showed an MIC [1] of 200 µM (≈ 75.7 µg/mL), an MIC [2] greater than 200 µM and an MIC [3] of less than 1.56 µM. The MIC (E. coli strain DH5α) was 25 µM (≈ 9.46 µg/mL).
Molecule `CC1(C)S[C@@H]2[C@H](NC(=O)[C@H](N)c3ccccc3)C(=O)N2[C@H]1C(=O)O` [Ampicillin, ampicillin] has an MIC [4, 24] of 100 µg/mL (≈ 286 µM), an MIC [7, 37] of 0.5 µg/mL (≈ 1.43 µM) and an MIC [11, 38] greater than 128 µg/mL. For the same molecule, the MIC [20, 33] was 0.1 µg/mL (≈ 0.286 µM) and the MIC ([21]; Streptococcus pneumoniae, 48 h) was 3.13 µg/mL (≈ 8.96 µM).
`CC(C)(O/N=C(\C(=O)N[C@@H]1C(=O)N2C(C(=O)[O-])=C(C[n+]3ccccc3)CS[C@H]12)c1csc(N)n1)C(=O)O` [Ceftazidime] was tested, and the MIC [7, 39] was 128 µg/mL (≈ 234 µM) and the MIC ([11]; Enterococcus faecalis) was greater than 128 µg/mL.
In the case of `CC[C@H]1OC(=O)[C@H](C)[C@@H](O[C@H]2C[C@@](C)(OC)[C@@H](O)[C@H](C)O2)[C@H](C)[C@@H](O[C@@H]2O[C@H](C)C[C@H](N(C)C)[C@H]2O)[C@](C)(O)C[C@@H](C)C(=O)[C@H](C)[C@@H](O)[C@]1(C)O` [Erythromycin, erythromycin], the MIC [7, 37] is reported as 2 µg/mL (≈ 2.73 µM), the MIC [11, 38] is reported as greater than 128 µg/mL and the MIC [21, 34] is reported as 100 µg/mL (≈ 136 µM).
Molecule gentamycin [reference compound] has an MIC [4] of 0.78 µg/mL, an MIC [6] of 0.39 µg/mL and an MIC [20] of 0.78 µg/mL. The MIC ([21]; S. pneumoniae, tryptic soy broth, 7% calf serum, 37° C., 48 hours) was 100 µg/mL and the MIC [22] was 0.78 µg/mL.
Molecule `CN[C@H](CC(C)C)C(=O)N[C@H]1C(=O)N[C@@H](CC(N)=O)C(=O)N[C@H]2C(=O)N[C@H]3C(=O)N[C@H](C(=O)N[C@H](C(=O)O)c4cc(O)cc(O)c4-c4cc3ccc4O)[C@H](O)c3ccc(c(Cl)c3)Oc3cc2cc(c3O[C@@H]2O[C@H](CO)[C@@H](O)[C@H](O)[C@H]2O[C@H]2C[C@](C)(N)[C@H](O)[C@H](C)O2)Oc2ccc(cc2Cl)[C@H]1O` [Vancomycin, reference compound] has an MIC [7, 35] of 1 µg/mL (≈ 0.69 µM), an MIC [7, 39] of 1 µg/mL (≈ 0.69 µM) and an MIC ([11]; Enterococcus faecalis) greater than 128 µg/mL. It also gave an MIC [11, 36] greater than 128 µg/mL, an MIC ([13]; Staphylococcus epidermidis) of 0.5 µg/mL (≈ 0.345 µM) and an MIC ([14]; Staphylococcus epidermidis) of 0.5 µg/mL (≈ 0.345 µM). It also gave an MIC ([15]; Staphylococcus aureus) of 0.5 µg/mL (≈ 0.345 µM), an MIC ([17]; Staphylococcus aureus) of 0.5 µg/mL (≈ 0.345 µM) and an MIC ([18]; Staphylococcus aureus) of 0.25 µg/mL (≈ 0.173 µM). The MIC ([19]; Micrococcus luteus) was 0.25 µg/mL (≈ 0.173 µM).
`O=C(N[C@H](CO)[C@H](O)c1ccc([N+](=O)[O-])cc1)C(Cl)Cl` [chloramphenicol] was tested, and the MIC [1] was 12.5 µM (≈ 4.04 µg/mL), the MIC [2] was 25 µM (≈ 8.08 µg/mL) and the MIC [3] was 6.25 µM (≈ 2.02 µg/mL). For the same molecule, the MIC (E. coli strain DH5α) was 3.12 µM (≈ 1.01 µg/mL).
For `CN(C)C(=O)[C@@H](NC(=O)C(CC1CCCC1)CN(O)C=O)C(C)(C)C` (stereo partly drawn) [Cpd 4, 2R (or S)-[(Formyl-hydroxy-amino)-methyl]-3-cyclopentyl-propionic acid (1S-dimethyl-carbamoyl-2,2-dimethyl-propyl)-amide], the MIC [7, 37] was 8 µg/mL (≈ 22.5 µM) and the MIC [11, 38] was 4 µg/mL (≈ 11.3 µM).
With `C[C@@H](O)[C@H]1C(=O)N2C(C(=O)O)=C(SCCN=CN)C[C@H]12` [Imipenem] the MIC [7, 37] was 1 µg/mL (≈ 3.34 µM) and the MIC [11, 38] was greater than 128 µg/mL.
